Holding throughout (assay type): cell-based
In experiment [1] the test system is Leishmania donovani axenic amastigote. Description: In vitro assay for growth inhibition of Leishmania donovani axenic amastigote (Cell TiterGlo luminescence). The following applies: Leishmania donovani, read-out: L. donovani amastigotes EC50. The method, then: Abbreviations as used herein below have the corresponding meaning: • CPRG Chlorophenol Red-P-D-galactopyranoside • ATP adenosine triphosphate • BSA bovine serum albumin • DMSO dimethyl sulfoxide • FBS fetal bovine serum • PBS phosphate buffered saline • RPMI 1640 Rosweli Park Memorial Institute (RPMI) 1640 medium In Vitro Assay for Growth Inhibition of Leishmania donovani Axenic Amastiqote
Leishmania donovani axenic amastigote parasites are grown at 37° C., 5% CO2 in media made of RPMI 1640, 4 mM L-glutamine, 20% heat inactivated FBS, 100 units/ml of penicillin and 100 μg/ml of streptomycin, 23 μM folic acid, 100 μM adenosine, 22 mM D-glucose, 25 mM MES. The pH of media is adjusted to 5.5 at 37° C. using HCl. 20 μL of media is first dispensed into 384 well plates and 100 nL of the compounds of invention in DMSO are added to the plate wells. At the same time control compounds and DMSO are added to plates to serve as the positive and negative controls, respectively. 40 μL of parasite culture (9600 parasites) are then added to the plate wells. The plates are then placed into incubators. After two days incubation, 20 μL of Cell TiterGlo® (Promega) is added to the plate wells. The luminescence signal of each well is measured using the Envision reader (Perkin Elmer).
A general note: Cellular ATP, detected with luciferase, serves as a proxy for viable cell number.

The test system of experiment [2] is Trypanosoma cruzi amastigotes cultured in 3T3 fibroblast cells. Description: Assay for growth inhibition of kinetoplastid parasite Trypanosoma cruzi (beta-galactosidase Tulahuen strain, CPRG readout). The note with it: Trypanosoma cruzi, Fibroblast, read-out: Buckner infectious T. cruzi EC50. From the text:
Assay for Growth Inhibition of Kinetoplastid Parasite Trypanosoma cruzi
Compounds of the invention can be assayed for inhibitor activity against Trypanosoma cruzi amastigotes cultured in 3T3 fibroblast cells. The assay is done using the mammalian stage (amastigotes) of T. cruzi that replicates in the intracellular space of host cells. The host cells are initially infected with the culture-derived trypomastigotes that rapidly invade and then divide as amastigotes. The protocol uses the Tulahuen strain of T. cruzi that has been engineered to express the E. coli beta-galactosidase gene (Lac-Z) (Antimicr. Agents Chemoth. 40:2592, 1996). This allows for a colorimetric readout by using the substrate CPRG and an absorbance plate reader.
3T3 fibroblast cells are re-suspended in RPMI-1640 medium without phenol red medium supplemented with 10% FBS (heat inactivated), 100 μg/ml penicillin, and 100 μg/ml streptomycin. Forty μL of suspension (1,000 cells) is dispensed into 384-well plates and incubated overnight at 37° C. temperature and in atmosphere containing 5% CO2. The following day, 100 nL of compounds of the invention in DMSO are added to plate wells containing 3T3 cells. At the same time control compounds (benznidazole and nifurtimox) and DMSO are added to plates to serve as the positive and negative controls, respectively. After that, 10 μL of media containing 10,000 T. cruzi trypomastigotes are added to each plate well and plates are placed back into incubators. After 6 day incubation, 10 μL of reagent solution (0.6 mM CPRG, 0.6% NP-40 in PBS) is added to plates and incubated at room temperature for 2 hours. Absorbance is then measured on SpectraMax GEMINI fluorimeter to determine relative number of T. cruzi cells present in each plate well.

Experiment [3] has as its system Trypanosoma brucei brucei (Lister 427) strain. As to the kind of experiment: Assay for growth inhibition against Trypanosoma brucei brucei (Cell TiterGlo ATP luminescence). The following applies: Trypanosoma brucei, read-out: T. Brucei (HAT) EC50. As to the method:
Assay for Growth Inhibition Against Trypanosoma brucei brucei
The proliferation is quantified by the addition of Cell TiterGlo® (Promega®) a luminescent cell viability assay that measures the number of viable cells in culture based on the quantification of cellular ATP amount, which is an indicator of metabolically active cells.
Trypanosoma brucei brucei (Lister 427) strain was grown in Hirumi 9 (HMI-9) media supplemented with 10% v/v fetal bovine serum (FBS) and 10% v/v serum plus. For measurement of cell proliferation inhibition, test compounds were three fold serially diluted in duplicates to 384-well white plates, resulting in 10 dilutions for each compound. A volume of 40 μL of T. b. brucei culture (10,000 parasites/mL) was added to each well, and the assay plates were incubated at 37° C. for 2 days in a CO2 incubator. Growth inhibition was monitored by measuring ATP levels, which, is used as a surrogate marker for growth. Relative luminescence units were measured using TECAN® M1000 after 30 min of adding 40 μl of Cell TiterGlo®. IC50 values were determined by analyzing the data using HELIOS software. IC50 is defined as the lowest concentration of the compound that inhibited 50% growth of the T. b. brucei wild type strain compared to untreated controls.

[4] abbreviates: L. donovani axenic amastigotes in vitro.
Where [5] appears, read: T. cruzi amastigotes in 3T3 fibroblast cells.

Read-outs that look alike come from different tables or passages of the source.

Regarding `O=C(Nc1ccc(F)c(-n2cc3cc(CC4CCC4)cnc3n2)c1)c1ccco1` [Compound 62, N-{3-[5-(cyclobutylmethyl)-2H-pyrazolo[3,4-b]pyridin-2-yl]-4-fluorophenyl}furan-2-carboxamide], the EC50 was 39 nM in experiment [1] (setting [4]), 5.1 nM in experiment [2] (setting [5]) and below 23 nM in experiment [3] (T. brucei brucei (Lister 427)).
Take `CC(C)c1cnc2nn(-c3cc(NC(=O)N4CC(F)C4)ccc3F)cc2c1` [Compound 156, 3-fluoro-N-{4-fluoro-3-[5-(propan-2-yl)-2H-pyrazolo[3,4-b]pyridin-2-yl]phenyl}azetidine-1-carboxamide]: the values for the EC50 in experiment [1] (setting [4]), in experiment [2] (setting [5]) and in experiment [3] (T. brucei brucei (Lister 427)) were 9.3 nM, 5.1 nM and below 23 nM, respectively.
`CC1(O)CN(c2cnc3nn(-c4cc(NC(=O)N5CC(F)C5)ccc4F)cc3c2)C1` [Compound 251, 3-fluoro-N-{4-fluoro-3-[5-(3-hydroxy-3-methylazetidin-1-yl)-2H-pyrazolo[3,4-b]pyridin-2-yl]phenyl}azetidine-1-carboxamide]: the EC50 in experiment [1] (setting [4]) was 24 nM; in experiment [2] (setting [5]), 367 nM; in experiment [3] (T. brucei brucei (Lister 427)) it was 5 nM.
On the same counts, the results for `Cc1cccnc1-c1cnc2nn(-c3cc(NC(=O)N4CC(F)C4)ccc3F)cc2c1` [Compound 6, 3-fluoro-N-(4-fluoro-3-(5-(3-methylpyridin-2-yl)-2H-pyrazolo[3,4-b]pyridin-2-yl)phenyl)azetidine-1-carboxamide] are 12 nM, 9.9 nM and below 23 nM.
For `CC(C)c1cnc2nn(-c3cc(NC(=O)N4CCN5CCC4CC5)ccc3F)cc2c1` [Compound 229, N-{4-fluoro-3-[5-(propan-2-yl)-2H-pyrazolo[3,4-b]pyridin-2-yl]phenyl}-1,4-diazabicyclo[3.2.2]nonane-4-carboxamide], the EC50 came out at 25000 nM in experiment [1] (setting [4]), 15600 nM in experiment [2] (setting [5]) and 12500 nM in experiment [3] (T. brucei brucei (Lister 427)).
In the same order, the values of `O=C(Nc1ccc(F)c(-n2cc3cc(N4CCN(CC(F)(F)F)CC4)cnc3n2)c1)N1CC(F)(F)C1` [Compound 252, 3,3-difluoro-N-(4-fluoro-3-{5-[4-(2,2,2-trifluoroethyl)piperazin-1-yl]-2H-pyrazolo[3,4-b]pyridin-2-yl}phenyl)azetidine-1-carboxamide] are 183 nM, 22 nM and 5 nM.
In the same order, the values of `CC(C)c1cnc2nn(-c3cc(NC(=O)c4ccc(CN(C)C)o4)ccc3F)cc2c1` [Compound 111, 5-[(dimethylamino)methyl]-N-{4-fluoro-3-[5-(propan-2-yl)-2H-pyrazolo[3,4-b]pyridin-2-yl]phenyl}furan-2-carboxamide] are 8700 nM, 2900 nM and 10000 nM.
In the same order, the values of `Cc1cc(C(=O)Nc2ccc(F)c(-n3cc4cc(C(C)C)cnc4n3)c2)oc1C` [Compound 114, N-{4-fluoro-3-[5-(propan-2-yl)-2H-pyrazolo[3,4-b]pyridin-2-yl]phenyl}-4,5-dimethylfuran-2-carboxamide] are 310 nM, 45 nM and 54 nM.
With `Cc1nc(C)c(C(=O)Nc2ccc(F)c(-n3cc4cc(-c5ncccc5C)cnc4n3)c2)o1` [Compound 1, N-(4-fluoro-3-(5-(3-methylpyridin-2-yl)-2H-pyrazolo[3,4-b]pyridin-2-yl)phenyl)-2,4-dimethyloxazole-5-carboxamide], the EC50 is 7.1 nM in experiment [1], 5.2 nM in experiment [2] and below 23 nM in experiment [3].
In the case of `CC(C)c1cnc2nn(-c3cc(NC(=O)N(C)C)ccc3F)cc2c1` [Compound 228, 1-{4-fluoro-3-[5-(propan-2-yl)-2H-pyrazolo[3,4-b]pyridin-2-yl]phenyl}-3,3-dimethylurea], the EC50 in experiment [1] (setting [4]) is 31 nM; in experiment [2] (setting [5]), 10 nM; in experiment [3] (T. brucei brucei (Lister 427)), 30 nM.

By EC50 is commonly meant the midpoint of the concentration-response curve.
